Assay results: patent US9079821B2, “Quinone based nitric oxide donating compounds” (NICOX S.A., priority 2011, dated 2015)

Test: Pharmacokinetic profile in rats (blood 15N-nitrite levels)
Type: in vivo, rat
Settings: cannulated SD rats, blood, oral 30 mg/kg
Protocol: The absorption and in vivo NO-donating property of the compounds of the invention were assessed by the evaluation of blood ^15N-nitrite levels following oral administration.
Tested Compounds: • 5-(2,4,5-trimethyl-3,6-dioxocyclohexa-1,4-dienylpentyl nitrate-nitrogen-15 which corresponds to compound (1) containing nitrogen-15 (^15N-Compound (1)); • 5-(4,5-dimethoxy-2-methyl-3,6-dioxocyclohexa-1,4-dienyl)pentyl nitrate-nitrogen-15 which corresponds to compound (2) containing nitrogen-15 (^15N-Compound (2)); • 4-(2,4,5-trimethyl-3,6-dioxocyclohexa-1,4-dienyl)butyl nitrate-nitrogen-15 which corresponds to compound (3) containing nitrogen-15 (^15N-Compound (3)); • 4-(4,5-dimethoxy-2-methyl-3,6-dioxocyclohexa-1,4-dienyl)butyl nitrate-nitrogen-15 which corresponds to compound (4) containing nitrogen-15 (^15N-Compound (4)); • 10-(2,4,5-trimethyl-3,6-dioxocyclohexa-1,4-dienyl)decyl nitrate-nitrogen-15 which corresponds to compound (5) containing nitrogen-15 (^15N-Compound (5)); • 10-(4,5-dimethoxy-2-methyl-3,6-dioxocyclohexa-1,4-dienyl)decyl nitrate-nitrogen-15 which corresponds to compound (6) containing nitrogen-15 (^15N-Compound (6)); • 3-(3-(4,5-dimethoxy-2-methyl-3,6-dioxocyclohexa-1,4-dienyl)propoxy)propyl nitrate-nitrogen-15 which corresponds to compound (14) containing nitrogen-15 (^15N-Compound (14)); • 6-(2,4,5-trimethyl-3,6-dioxocyclohexa-1,4-dienyl)hexyl nitrate-nitrogen-15 which corresponds to compound (15) containing nitrogen-15 (^15N-Compound (15)); • 6-(4,5-dimethoxy-2-methyl-3,6-dioxocyclohexa-1,4-dienyl)hexyl nitrate-nitrogen-15 which corresponds to compound (16) containing nitrogen-15 (^15N-Compound (16)); • 11-(4,5-dimethoxy-2-methyl-3,6-dioxocyclohexa-1,4-dienyl)-undecane-1,2-diyl dinitrate-nitrogen-15 which corresponds to compound (17) containing nitrogen-15 (^15N-Compound (17)); • 8-(5-methoxy-2,4-dimethyl-3,6-dioxocyclohexa-1,4-dienyl)octyl nitrate-nitrogen—which corresponds to compound (19) containing nitrogen-15 (^15N-Compound (19)); • 2-(3-(4,5-dimethoxy-2-methyl-3,6-dioxocyclohexa-1,4-dienyl)propoxy)ethyl nitrate-nitrogen-15 which corresponds to compound (20) containing nitrogen-15 (^15N-Compound (20)); • 6-(3-methyl-1,4-dioxo-1,4-dihydronaphthalen-2-yl)hexyl nitrate-nitrogen-15 which corresponds to compound (23) containing nitrogen-15 (^15N-Compound (23)); • 3-(3-(3-methyl-1,4-dioxo-1,4-dihydronaphthalen-2-yl)propoxy)propyl nitrate-nitrogen-15 which corresponds to compound (25) containing nitrogen-15 (^15N-Compound (25)); • 6-(5-methoxy-2,4-dimethyl-3,6-dioxocyclohexa-1,4-dienyl)hexyl nitrate-nitrogen-15 which corresponds to compound (28) containing nitrogen-15 (^15N-Compound (28)); • 6-(4-methoxy-2,5-dimethyl-3,6-dioxocyclohexa-1,4-dienyl)hexyl nitrate-nitrogen-15 which corresponds to compound (29) containing nitrogen-15 (^15N-Compound (29)); • 8-(4-methoxy-2,5-dimethyl-3,6-dioxocyclohexa-1,4-dienyl)octyl nitrate-nitrogen-15 which corresponds to compound (32) containing nitrogen-15 (^15N-Compound (32)); • 8-(2,4,5-trimethyl-3,6-dioxocyclohexa-1,4-dienyl)octyl nitrate-nitrogen-15 which corresponds to compound (34) containing nitrogen-15 (^15N-Compound (34)); • 5-isorbide mononitrate containing nitrogen-15 (5-ISM^15N).
Cannulated SD rats were orally treated with ^15N-Compounds (6) at 30 mg/kg, 5-ISM^15N (30 mg/kg), or ^15N-Compounds (1)-(5), 14)-(17), (19), (20), (23), (25), (28), (29), (32), (34) at 30 mg/kg. At each time point (5, 10, 15, 30, 60, 180, 360 and 1440 min) blood was taken using heparin to avoid blood clotting. Blood samples were immediately protein crushed. Samples were analyzed by LC-MS/MS.
In Table 7 are reported ^15N-nitrite blood levels following oral administration of SD rats with 5-ISM^15N (30 mg/kg) or with ^15N-labeled corresponding compounds of the invention (30 mg/kg).

SMILES	15N-nitrite AUC0-24 [µM·min]	15N-nitrite Tmax [h]
COC1=C(OC)C(=O)C(CCCOCCO[15N+](=O)[O-])=C(C)C1=O [^15N-Compound (20), 2-(3-(4,5-dimethoxy-2-methyl-3,6-dioxocyclohexa-1,4-dienyl)propoxy)ethyl nitrate-nitrogen-15]	1154	1

Same assay, conditions: cannulated SD rats, blood, oral 30 mg/kg; read-out: 15N-nitrite Cmax

SMILES	Cmax [nM]
COC1=C(OC)C(=O)C(CCCOCCO[N+](=O)[O-])=C(C)C1=O [^15N-Compound (20), 2-(3-(4,5-dimethoxy-2-methyl-3,6-dioxocyclohexa-1,4-dienyl)propoxy)ethyl nitrate-nitrogen-15]	3580 ± 720

Same assay, conditions: rat, in vivo, po, 30 mg/kg

15N-nitrite AUC0-24 [µM·min]	15N-nitrite Tmax [h]	Cmax [nM]	SMILES
1248	1	3350 ± 420	CC1=C(C)C(=O)C(CCCCCO[N+](=O)[O-])=C(C)C1=O [^15N-Compound (1)]
1139	1		COC1=C(OC)C(=O)C(CCCCCO[15N+](=O)[O-])=C(C)C1=O [^15N-Compound (2), 5-(4,5-dimethoxy-2-methyl-3,6-dioxocyclohexa-1,4-dienyl)pentyl nitrate-nitrogen-15]
		1920 ± 250	COC1=C(OC)C(=O)C(CCCCCO[N+](=O)[O-])=C(C)C1=O [^15N-Compound (2), 5-(4,5-dimethoxy-2-methyl-3,6-dioxocyclohexa-1,4-dienyl)pentyl nitrate-nitrogen-15]
1404	1		CC1=C(C)C(=O)C(CCCCO[15N+](=O)[O-])=C(C)C1=O [^15N-Compound (3), 4-(2,4,5-trimethyl-3,6-dioxocyclohexa-1,4-dienyl)butyl nitrate-nitrogen-15]
		4820 ± 1100	CC1=C(C)C(=O)C(CCCCO[N+](=O)[O-])=C(C)C1=O [^15N-Compound (3), 4-(2,4,5-trimethyl-3,6-dioxocyclohexa-1,4-dienyl)butyl nitrate-nitrogen-15]
832	0.25	3330 ± 100	COC1=C(OC)C(=O)C(CCCCO[N+](=O)[O-])=C(C)C1=O [^15N-Compound (4), 4-(4,5-dimethoxy-2-methyl-3,6-dioxocyclohexa-1,4-dienyl)butyl nitrate-nitrogen-15]
1496	3		CC1=C(C)C(=O)C(CCCCCCCCCCO[15N+](=O)[O-])=C(C)C1=O [^15N-Compound (5), 10-(2,4,5-trimethyl-3,6-dioxocyclohexa-1,4-dienyl)decyl nitrate-nitrogen-15]
		1890 ± 420	CC1=C(C)C(=O)C(CCCCCCCCCCO[N+](=O)[O-])=C(C)C1=O [^15N-Compound (5), 10-(2,4,5-trimethyl-3,6-dioxocyclohexa-1,4-dienyl)decyl nitrate-nitrogen-15]
694	1		COC1=C(OC)C(=O)C(CCCOCCCO[15N+](=O)[O-])=C(C)C1=O [^15N-Compound (14), 3-(3-(4,5-dimethoxy-2-methyl-3,6-dioxocyclohexa-1,4-dienyl)propoxy)propyl nitrate-nitrogen-15]
		1520 ± 110	COC1=C(OC)C(=O)C(CCCOCCCO[N+](=O)[O-])=C(C)C1=O [^15N-Compound (14), 3-(3-(4,5-dimethoxy-2-methyl-3,6-dioxocyclohexa-1,4-dienyl)propoxy)propyl nitrate-nitrogen-15]
2135	3		CC1=C(C)C(=O)C(CCCCCCO[15N+](=O)[O-])=C(C)C1=O [^15N-Compound (15), 6-(2,4,5-trimethyl-3,6-dioxocyclohexa-1,4-dienyl)hexyl nitrate-nitrogen-15]
		3650 ± 580	CC1=C(C)C(=O)C(CCCCCCO[N+](=O)[O-])=C(C)C1=O [^15N-Compound (15), 6-(2,4,5-trimethyl-3,6-dioxocyclohexa-1,4-dienyl)hexyl nitrate-nitrogen-15]
1559	3	2930 ± 490	COC1=C(OC)C(=O)C(CCCCCCO[N+](=O)[O-])=C(C)C1=O [^15N-Compound (16), 6-(4,5-dimethoxy-2-methyl-3,6-dioxocyclohexa-1,4-dienyl)hexyl nitrate-nitrogen-15]
1666	3	2060 ± 120	COC1=C(OC)C(=O)C(CCCCCCCCCC(CO[N+](=O)[O-])O[N+](=O)[O-])=C(C)C1=O (stereo not drawn) [^15N-Compound (17), 11-(4,5-dimethoxy-2-methyl-3,6-dioxocyclohexa-1,4-dienyl)-undecane-1,2-diyl dinitrate-nitrogen-15]
2586	3		CC1=C(CCCCCCO[15N+](=O)[O-])C(=O)c2ccccc2C1=O [^15N-Compound (23), 6-(3-methyl-1,4-dioxo-1,4-dihydronaphthalen-2-yl)hexyl nitrate-nitrogen-15]
		4050 ± 530	CC1=C(CCCCCCO[N+](=O)[O-])C(=O)c2ccccc2C1=O [^15N-Compound (23), 6-(3-methyl-1,4-dioxo-1,4-dihydronaphthalen-2-yl)hexyl nitrate-nitrogen-15]
2010	3	2890 ± 690	CC1=C(CCCOCCCO[N+](=O)[O-])C(=O)c2ccccc2C1=O [^15N-Compound (25), 3-(3-(3-methyl-1,4-dioxo-1,4-dihydronaphthalen-2-yl)propoxy)propyl nitrate-nitrogen-15]
1199	1	3740 ± 420	COC1=C(C)C(=O)C(C)=C(CCCCCCO[N+](=O)[O-])C1=O [^15N-Compound (28), 6-(5-methoxy-2,4-dimethyl-3,6-dioxocyclohexa-1,4-dienyl)hexyl nitrate-nitrogen-15]
1309	1	2550 ± 220	COC1=C(C)C(=O)C(CCCCCCO[N+](=O)[O-])=C(C)C1=O [^15N-Compound (29), 6-(4-methoxy-2,5-dimethyl-3,6-dioxocyclohexa-1,4-dienyl)hexyl nitrate-nitrogen-15]
1892	3	1980 ± 570	COC1=C(C)C(=O)C(CCCCCCCCO[N+](=O)[O-])=C(C)C1=O [^15N-Compound (32), 8-(4-methoxy-2,5-dimethyl-3,6-dioxocyclohexa-1,4-dienyl)octyl nitrate-nitrogen-15]
1477	3		CC1=C(C)C(=O)C(CCCCCCCCO[15N+](=O)[O-])=C(C)C1=O [^15N-Compound (34), 8-(2,4,5-trimethyl-3,6-dioxocyclohexa-1,4-dienyl)octyl nitrate-nitrogen-15]
		2800 ± 250	CC1=C(C)C(=O)C(CCCCCCCCO[N+](=O)[O-])=C(C)C1=O [^15N-Compound (34), 8-(2,4,5-trimethyl-3,6-dioxocyclohexa-1,4-dienyl)octyl nitrate-nitrogen-15]
